The values below come from ChEMBL document CHEMBL5329209, “Designing photoaffinity tool compounds for the investigation of the DENV NS2B-NS3 protease allosteric binding pocket” (RSC Med Chem, 2023).

T1 sequence (P29990 1346-1475 limits assumed): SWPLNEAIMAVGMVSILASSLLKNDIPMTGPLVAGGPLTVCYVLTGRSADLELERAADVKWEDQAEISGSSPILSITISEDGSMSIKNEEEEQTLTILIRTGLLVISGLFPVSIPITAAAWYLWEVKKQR
T1 sequence (P29990 1476-2093 limits assumed): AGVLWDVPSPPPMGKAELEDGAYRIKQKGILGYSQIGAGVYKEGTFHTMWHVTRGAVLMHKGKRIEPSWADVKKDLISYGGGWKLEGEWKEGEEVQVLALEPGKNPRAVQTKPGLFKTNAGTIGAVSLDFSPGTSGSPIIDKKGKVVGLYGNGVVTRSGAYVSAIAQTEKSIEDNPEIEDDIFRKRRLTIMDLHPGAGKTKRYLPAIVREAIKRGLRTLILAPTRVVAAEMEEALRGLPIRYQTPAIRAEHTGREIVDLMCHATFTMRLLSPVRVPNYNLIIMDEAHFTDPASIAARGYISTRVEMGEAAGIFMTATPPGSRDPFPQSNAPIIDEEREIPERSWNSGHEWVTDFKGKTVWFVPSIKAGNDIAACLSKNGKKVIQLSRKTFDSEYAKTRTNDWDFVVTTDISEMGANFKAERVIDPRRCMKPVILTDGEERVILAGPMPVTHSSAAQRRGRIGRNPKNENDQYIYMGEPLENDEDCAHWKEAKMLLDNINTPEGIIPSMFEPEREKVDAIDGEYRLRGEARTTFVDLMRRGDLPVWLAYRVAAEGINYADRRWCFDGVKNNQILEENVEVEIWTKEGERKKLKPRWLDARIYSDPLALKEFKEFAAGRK

One assay addresses T1, Genome polyprotein (dengue virus type 2, UniProt P29990). The assay can be described thus: Inhibition of DENV2 NS2B-NS3 protease using Boc-Gly-Arg-Arg-AMC as substrate by fluorometric analysis.
Conditions: not given
The compound `CC1OCCC1SSC[C@@H](NC(=O)c1ccc(C2(C(F)(F)F)N=N2)cc1)C(=O)Nc1nc2cc(O)c(O)cc2s1` (stereo partly specified) displayed an IC50 of 20 µM.

`O=C(Nc1nc2cc(O)c(O)cc2s1)c1ccc(C2(C(F)(F)F)N=N2)cc1` showed an IC50 of 9.97 µM. Compound `O=C(CN(CC1CC2C=CC1C2)C(=O)c1ccc(C2(C(F)(F)F)N=N2)cc1)Nc1nc2cc(O)c(O)cc2s1` (stereo unspecified) registered an IC50 of 17 µM. This IC50 is about 1.7-fold higher than that of the compound before. Consider `O=C(N[C@H](CS)C(=O)Nc1nc2cc(O)c(O)cc2s1)c1ccc(C2(C(F)(F)F)N=N2)cc1`, for which the IC50 turned out to be 13.4 µM. The same measure, in the same setting: the result for `CC(C)(C)SSC[C@@H](NC(=O)c1ccc(C2(C(F)(F)F)N=N2)cc1)C(=O)Nc1nc2cc(O)c(O)cc2s1` reads 10.2 µM.

The target of another assay is T1, Genome polyprotein. The assay can be described thus: Binding affinity to N terminal hexa histidine tagged DENV2 NS2B-NS3 protease assessed as apparent Ki by Dixon plot analysis. The following applies: read-out: Ki(app).
For the compound `O=C(Nc1nc2cc(O)c(O)cc2s1)c1ccc(C2(C(F)(F)F)N=N2)cc1`, the Ki was 6.32 µM.
